The values that follow come from ChEMBL document CHEMBL5653615 (J Biol Chem, 2013).

As a reminder, the inhibition is the change of the read-out against control, counted positive when it falls.

The target of assay [1] is T1, Cytoplasmic tyrosine-protein kinase BMX (Homo sapiens) (UniProt P51813).
T1 sequence (whole entry): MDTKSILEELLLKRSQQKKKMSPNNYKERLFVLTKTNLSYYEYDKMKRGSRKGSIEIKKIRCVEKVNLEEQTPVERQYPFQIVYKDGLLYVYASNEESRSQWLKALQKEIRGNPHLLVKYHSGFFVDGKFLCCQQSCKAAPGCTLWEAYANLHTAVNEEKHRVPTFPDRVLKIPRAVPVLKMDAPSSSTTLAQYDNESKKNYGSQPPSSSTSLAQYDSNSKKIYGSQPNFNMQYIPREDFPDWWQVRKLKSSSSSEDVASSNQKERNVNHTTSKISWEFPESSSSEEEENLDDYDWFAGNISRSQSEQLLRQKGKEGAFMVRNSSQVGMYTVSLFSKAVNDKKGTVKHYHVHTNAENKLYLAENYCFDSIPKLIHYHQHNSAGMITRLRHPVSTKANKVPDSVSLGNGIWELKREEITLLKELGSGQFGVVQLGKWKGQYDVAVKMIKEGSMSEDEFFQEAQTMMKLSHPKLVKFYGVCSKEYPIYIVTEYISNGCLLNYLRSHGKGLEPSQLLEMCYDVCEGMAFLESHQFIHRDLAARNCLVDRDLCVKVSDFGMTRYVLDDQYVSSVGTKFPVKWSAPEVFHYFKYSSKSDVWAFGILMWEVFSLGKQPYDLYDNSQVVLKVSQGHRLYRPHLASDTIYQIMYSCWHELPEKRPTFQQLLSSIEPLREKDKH
Nature of the assay: Inhibition of human BMX at 18.6 nM by HotSpot assay relative to control.

Assay [2] has as its target T2, Interleukin-1 receptor-associated kinase 4 (Homo sapiens) (UniProt Q9NWZ3).
T2 sequence (whole entry): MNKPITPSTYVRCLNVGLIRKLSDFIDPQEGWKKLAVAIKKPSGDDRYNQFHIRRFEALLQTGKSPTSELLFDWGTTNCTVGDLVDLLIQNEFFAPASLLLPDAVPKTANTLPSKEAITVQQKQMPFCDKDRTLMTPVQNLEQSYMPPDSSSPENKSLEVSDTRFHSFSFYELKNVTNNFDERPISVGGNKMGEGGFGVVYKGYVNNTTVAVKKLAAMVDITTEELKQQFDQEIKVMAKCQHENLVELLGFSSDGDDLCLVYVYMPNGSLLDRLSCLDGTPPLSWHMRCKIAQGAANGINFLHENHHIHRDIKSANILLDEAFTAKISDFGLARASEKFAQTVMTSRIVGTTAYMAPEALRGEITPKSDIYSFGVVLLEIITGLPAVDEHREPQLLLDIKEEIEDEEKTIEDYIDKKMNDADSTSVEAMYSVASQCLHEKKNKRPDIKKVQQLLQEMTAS
Nature of the assay: Inhibition of human IRAK4 at 1.82 nM by HotSpot assay relative to control.

Assay [3] addresses MAP kinase-activated protein kinase 2 (Homo sapiens) (UniProt P49137). Nature of the assay: Inhibition of human MAPKAPK2 at 1.82 nM by HotSpot assay relative to control.
The target of assay [4] is Calcium/calmodulin-dependent protein kinase type 1D (Homo sapiens) (UniProt Q8IU85). Nature of the assay: Inhibition of human CAMK1d at 1.82 nM by HotSpot assay relative to control.
In assay [5] the target is Protein kinase C delta type (Homo sapiens) (UniProt Q05655). In words: Inhibition of human PKCd at 1.82 nM by HotSpot assay relative to control.
For assay [6], the target named is Non-receptor tyrosine-protein kinase TYK2 (Homo sapiens) (UniProt P29597). In words: Inhibition of human TYK2 at 1.82 nM by HotSpot assay relative to control.
Assay [7] addresses Tyrosine-protein kinase ABL2 (Homo sapiens) (UniProt P42684). In words: Inhibition of human ABL2 at 1.82 nM by HotSpot assay relative to control.
The target in assay [8] is T3, Serine/threonine-protein kinase Nek1 (Homo sapiens) (UniProt Q96PY6).
T3 sequence (whole entry): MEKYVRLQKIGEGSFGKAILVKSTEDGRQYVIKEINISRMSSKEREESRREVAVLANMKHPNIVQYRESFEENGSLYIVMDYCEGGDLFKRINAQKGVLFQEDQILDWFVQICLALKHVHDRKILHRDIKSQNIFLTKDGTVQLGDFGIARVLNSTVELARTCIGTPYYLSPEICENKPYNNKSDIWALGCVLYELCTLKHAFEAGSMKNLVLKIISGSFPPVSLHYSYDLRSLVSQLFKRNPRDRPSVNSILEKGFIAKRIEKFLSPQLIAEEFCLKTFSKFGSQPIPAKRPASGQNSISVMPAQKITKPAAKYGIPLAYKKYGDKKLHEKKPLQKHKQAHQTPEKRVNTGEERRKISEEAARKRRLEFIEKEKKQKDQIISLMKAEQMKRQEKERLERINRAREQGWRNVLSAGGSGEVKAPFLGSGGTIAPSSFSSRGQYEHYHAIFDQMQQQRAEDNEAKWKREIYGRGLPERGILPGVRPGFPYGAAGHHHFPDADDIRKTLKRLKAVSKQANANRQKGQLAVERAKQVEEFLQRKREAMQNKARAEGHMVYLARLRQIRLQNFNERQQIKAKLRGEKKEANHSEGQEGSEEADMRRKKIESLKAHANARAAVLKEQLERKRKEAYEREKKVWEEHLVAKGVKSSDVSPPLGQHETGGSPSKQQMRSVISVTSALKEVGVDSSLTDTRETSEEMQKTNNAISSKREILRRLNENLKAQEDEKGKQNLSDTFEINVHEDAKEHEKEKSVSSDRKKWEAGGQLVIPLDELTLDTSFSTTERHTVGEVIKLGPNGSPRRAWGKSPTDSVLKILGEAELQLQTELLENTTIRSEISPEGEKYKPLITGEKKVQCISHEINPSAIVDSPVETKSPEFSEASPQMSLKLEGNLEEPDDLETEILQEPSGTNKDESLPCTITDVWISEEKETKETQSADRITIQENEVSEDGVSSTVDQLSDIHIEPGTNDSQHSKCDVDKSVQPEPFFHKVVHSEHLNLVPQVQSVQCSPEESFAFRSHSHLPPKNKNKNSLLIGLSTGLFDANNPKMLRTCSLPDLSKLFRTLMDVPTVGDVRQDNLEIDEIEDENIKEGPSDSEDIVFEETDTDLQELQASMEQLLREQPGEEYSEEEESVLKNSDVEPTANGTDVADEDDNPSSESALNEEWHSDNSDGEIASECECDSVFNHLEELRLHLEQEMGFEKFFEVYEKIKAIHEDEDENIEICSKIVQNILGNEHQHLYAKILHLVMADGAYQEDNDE
Nature of the assay: Inhibition of human NEK1 at 500 nM by HotSpot assay relative to control.

Chain of Calcium/calmodulin-dependent protein kinase type 1D (Homo sapiens) (Q8IU85 whole entry, looked up): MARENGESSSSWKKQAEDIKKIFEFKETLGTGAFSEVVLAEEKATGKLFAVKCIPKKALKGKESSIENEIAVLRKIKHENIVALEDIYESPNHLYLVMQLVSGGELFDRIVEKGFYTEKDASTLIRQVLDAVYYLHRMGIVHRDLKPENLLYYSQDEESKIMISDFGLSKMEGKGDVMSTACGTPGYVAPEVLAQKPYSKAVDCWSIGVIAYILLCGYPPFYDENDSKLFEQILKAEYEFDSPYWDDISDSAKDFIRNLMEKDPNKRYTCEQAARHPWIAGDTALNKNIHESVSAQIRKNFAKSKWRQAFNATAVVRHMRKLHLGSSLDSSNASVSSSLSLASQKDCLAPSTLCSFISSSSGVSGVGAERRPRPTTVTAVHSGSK
Chain of Tyrosine-protein kinase ABL2 (Homo sapiens) (P42684 whole entry): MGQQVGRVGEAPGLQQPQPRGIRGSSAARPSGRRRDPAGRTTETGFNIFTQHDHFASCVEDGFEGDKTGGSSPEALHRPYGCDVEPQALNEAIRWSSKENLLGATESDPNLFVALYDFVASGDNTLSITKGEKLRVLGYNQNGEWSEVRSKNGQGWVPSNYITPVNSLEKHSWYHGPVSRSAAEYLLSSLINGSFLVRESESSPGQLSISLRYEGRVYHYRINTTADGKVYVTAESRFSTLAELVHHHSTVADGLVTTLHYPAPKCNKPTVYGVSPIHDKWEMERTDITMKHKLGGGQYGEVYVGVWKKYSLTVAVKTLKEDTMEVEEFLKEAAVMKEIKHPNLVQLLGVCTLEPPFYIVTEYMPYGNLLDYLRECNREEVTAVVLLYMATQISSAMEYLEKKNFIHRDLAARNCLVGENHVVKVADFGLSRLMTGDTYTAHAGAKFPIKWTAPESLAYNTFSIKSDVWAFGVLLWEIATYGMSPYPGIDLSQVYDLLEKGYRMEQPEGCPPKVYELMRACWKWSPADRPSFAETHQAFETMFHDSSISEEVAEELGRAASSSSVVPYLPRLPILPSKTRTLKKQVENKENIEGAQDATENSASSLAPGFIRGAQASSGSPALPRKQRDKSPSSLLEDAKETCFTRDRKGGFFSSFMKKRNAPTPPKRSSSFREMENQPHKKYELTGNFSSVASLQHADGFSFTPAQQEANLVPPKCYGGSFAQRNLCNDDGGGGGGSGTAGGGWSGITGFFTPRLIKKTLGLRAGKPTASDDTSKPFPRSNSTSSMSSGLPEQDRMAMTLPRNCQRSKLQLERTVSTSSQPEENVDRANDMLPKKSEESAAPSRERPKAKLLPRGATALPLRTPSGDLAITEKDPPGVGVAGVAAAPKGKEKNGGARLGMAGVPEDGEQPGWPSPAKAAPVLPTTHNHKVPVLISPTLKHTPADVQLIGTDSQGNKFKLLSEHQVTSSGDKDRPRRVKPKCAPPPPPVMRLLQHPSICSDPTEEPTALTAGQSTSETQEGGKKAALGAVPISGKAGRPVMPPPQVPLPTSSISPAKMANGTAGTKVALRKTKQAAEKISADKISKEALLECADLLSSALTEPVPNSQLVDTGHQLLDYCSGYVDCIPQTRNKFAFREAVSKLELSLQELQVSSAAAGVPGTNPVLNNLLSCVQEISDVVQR
Chain of MAP kinase-activated protein kinase 2 (Homo sapiens) (P49137 whole entry, looked up): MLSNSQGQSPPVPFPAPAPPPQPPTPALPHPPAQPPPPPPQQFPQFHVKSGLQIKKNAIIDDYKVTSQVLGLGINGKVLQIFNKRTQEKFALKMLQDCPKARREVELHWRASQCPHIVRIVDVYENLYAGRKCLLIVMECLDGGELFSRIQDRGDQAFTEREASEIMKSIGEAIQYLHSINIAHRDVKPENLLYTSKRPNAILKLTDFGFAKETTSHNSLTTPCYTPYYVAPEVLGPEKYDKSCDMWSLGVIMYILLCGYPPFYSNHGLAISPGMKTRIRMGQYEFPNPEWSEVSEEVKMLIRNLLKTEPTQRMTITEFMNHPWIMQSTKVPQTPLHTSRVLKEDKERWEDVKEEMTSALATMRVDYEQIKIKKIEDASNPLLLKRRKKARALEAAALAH
Chain of Protein kinase C delta type (Homo sapiens) (Q05655 whole entry, looked up): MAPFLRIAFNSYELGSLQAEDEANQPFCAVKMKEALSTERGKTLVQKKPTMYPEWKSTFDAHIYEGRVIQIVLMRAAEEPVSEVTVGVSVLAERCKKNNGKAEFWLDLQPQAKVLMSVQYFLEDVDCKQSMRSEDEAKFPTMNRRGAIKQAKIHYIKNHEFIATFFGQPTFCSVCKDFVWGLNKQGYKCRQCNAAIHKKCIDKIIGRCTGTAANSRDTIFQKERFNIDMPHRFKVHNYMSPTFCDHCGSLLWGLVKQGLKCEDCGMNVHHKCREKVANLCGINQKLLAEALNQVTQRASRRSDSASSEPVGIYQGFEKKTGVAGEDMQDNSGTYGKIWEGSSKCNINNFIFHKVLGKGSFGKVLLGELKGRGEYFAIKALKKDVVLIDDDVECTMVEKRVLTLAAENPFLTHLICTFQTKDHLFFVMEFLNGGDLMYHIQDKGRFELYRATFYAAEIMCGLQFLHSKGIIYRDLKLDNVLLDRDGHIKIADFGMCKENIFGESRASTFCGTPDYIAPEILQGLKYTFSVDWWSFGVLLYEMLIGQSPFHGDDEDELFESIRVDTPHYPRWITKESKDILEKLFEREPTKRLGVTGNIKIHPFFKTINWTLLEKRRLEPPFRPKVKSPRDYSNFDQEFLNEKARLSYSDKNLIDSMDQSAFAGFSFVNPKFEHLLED
Chain of Non-receptor tyrosine-protein kinase TYK2 (Homo sapiens) (P29597 whole entry): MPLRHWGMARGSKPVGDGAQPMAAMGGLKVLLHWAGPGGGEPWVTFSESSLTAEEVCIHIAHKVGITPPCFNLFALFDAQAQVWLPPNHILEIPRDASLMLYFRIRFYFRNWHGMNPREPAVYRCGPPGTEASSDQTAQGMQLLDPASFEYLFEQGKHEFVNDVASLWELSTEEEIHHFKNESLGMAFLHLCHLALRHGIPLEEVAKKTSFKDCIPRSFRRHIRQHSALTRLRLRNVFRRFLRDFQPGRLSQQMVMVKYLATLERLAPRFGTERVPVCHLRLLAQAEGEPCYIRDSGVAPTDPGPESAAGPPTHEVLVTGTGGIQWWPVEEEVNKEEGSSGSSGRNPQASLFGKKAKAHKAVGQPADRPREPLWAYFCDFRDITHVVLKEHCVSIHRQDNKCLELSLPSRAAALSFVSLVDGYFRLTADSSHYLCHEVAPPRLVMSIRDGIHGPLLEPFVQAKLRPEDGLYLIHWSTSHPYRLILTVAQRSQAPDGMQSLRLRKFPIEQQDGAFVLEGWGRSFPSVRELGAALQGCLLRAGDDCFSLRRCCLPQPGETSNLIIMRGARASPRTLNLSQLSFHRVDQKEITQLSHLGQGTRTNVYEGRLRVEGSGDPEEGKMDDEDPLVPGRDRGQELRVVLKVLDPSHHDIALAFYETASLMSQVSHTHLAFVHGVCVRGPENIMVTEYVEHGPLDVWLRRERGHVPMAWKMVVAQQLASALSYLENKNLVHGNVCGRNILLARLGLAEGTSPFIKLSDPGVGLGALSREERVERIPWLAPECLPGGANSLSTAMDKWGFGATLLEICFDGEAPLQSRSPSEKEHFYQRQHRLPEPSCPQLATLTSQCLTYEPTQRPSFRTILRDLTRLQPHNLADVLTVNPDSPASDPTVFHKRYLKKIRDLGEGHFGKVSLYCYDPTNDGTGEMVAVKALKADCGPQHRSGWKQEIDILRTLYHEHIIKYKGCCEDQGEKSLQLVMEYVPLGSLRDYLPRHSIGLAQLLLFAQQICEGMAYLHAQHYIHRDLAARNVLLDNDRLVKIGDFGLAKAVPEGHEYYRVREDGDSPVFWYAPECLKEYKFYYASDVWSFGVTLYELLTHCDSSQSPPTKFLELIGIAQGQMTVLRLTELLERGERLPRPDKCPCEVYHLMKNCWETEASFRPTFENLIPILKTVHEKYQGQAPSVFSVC

Regarding `C[C@]1(O)C[C@@H](c2nc(-c3ccc4ccc(-c5ccccc5)nc4c3)c3c(N)nccn32)C1`, the inhibition in assay [1] was -2.96%.

As to `C[C@@]1(C(=O)Nc2ccc(F)nc2)CCCN1c1nc(Nc2cc(C3CC3)n[nH]2)c2cccn2n1`, the inhibition is -4.67% in assay [2]; 0.98% in assay [3]; -3.77% in assay [4]; -1.35% in assay [5]; 1.02% in assay [6]; -4.72% in assay [7].

On to `Nc1n[nH]c2nnc(-c3c(-c4ccccc4)nn4ccccc34)cc12`, for which the inhibition in assay [8] is -9.24%.
